Measurements from patent US7151105B2, “Inhibitors of Hepatitis C virus RNA-dependent RNA polymerase, and compositions and treatments using the same” (Agouron Pharmaceuticals, Inc., priority 2004, dated 2006).

molecular target: T1, Recombinant HCV polymerase (Hepatitis C virus genotype 1b, UniProt P26663); test: biochemical; conditions: inhibition of polymerase-directed transcription; 30 min at 30° C; 30 nM enzyme; cpm data in triplicate
T1 construct: Recombinant HCV polymerase was tested for its ability to perform primer/template-directed transcription
T1 sequence (P26663 2420-3010): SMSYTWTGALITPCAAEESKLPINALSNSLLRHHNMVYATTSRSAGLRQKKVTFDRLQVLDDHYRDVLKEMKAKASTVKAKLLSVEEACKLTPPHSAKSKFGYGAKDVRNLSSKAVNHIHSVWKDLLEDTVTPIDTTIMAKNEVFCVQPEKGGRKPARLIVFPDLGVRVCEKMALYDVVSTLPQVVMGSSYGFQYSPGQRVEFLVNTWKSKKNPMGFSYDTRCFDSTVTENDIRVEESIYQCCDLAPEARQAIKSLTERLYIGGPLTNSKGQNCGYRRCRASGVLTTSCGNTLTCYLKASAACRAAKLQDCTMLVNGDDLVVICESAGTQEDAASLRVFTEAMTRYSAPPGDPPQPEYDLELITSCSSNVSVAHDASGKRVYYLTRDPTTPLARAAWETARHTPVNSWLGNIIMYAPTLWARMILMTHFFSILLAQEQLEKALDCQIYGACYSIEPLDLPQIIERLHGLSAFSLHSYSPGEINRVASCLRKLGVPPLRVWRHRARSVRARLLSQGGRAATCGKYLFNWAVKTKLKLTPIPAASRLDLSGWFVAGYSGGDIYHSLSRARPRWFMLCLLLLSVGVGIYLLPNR
Summary of the method: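 Primer/template-directed RNA synthesis by 2.5 pmol HCV polymerase on poly(rC)300/biotin-dG12 with 1 μM GTP plus α-32P-GTP, in pH 7.2 Tris buffer with 10 mM MgCl2, for 30 min at 30 °C. Products were filter-captured and counted, with 1% DMSO final. IC50 was fitted from triplicate cpm; percent inhibition was reported where IC50 was impractical.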

Compound	IC50 [µM]
CCCOc1cc(O)c(CC)cc1CCC1(C2CCCC2)CC(O)=C(Cc2nc3ncc(C)cn3n2)C(=O)O1 (centres unmarked) [A(47), 6-Cyclopentyl-6-[2-(5-ethyl-4-hydroxy-2-propoxyphenyl)ethyl]-4-hydroxy-3-[(6-methyl[1,2,4]triazolo[1,5-a]pyrimidin-2-yl)methyl]-5,6-dihydro-2H-pyran-2-one]	0.005
Cc1cnc2nc(CC3=C(O)CC(CCc4cc(CC(F)(F)F)nc(CC(F)(F)F)c4)(C4CCCC4)OC3=O)nn2c1 (centres unmarked) [A(48), 6-{2-[2,6-Bis(2,2,2-trifluoroethyl)pyridin-4-yl]ethyl}-6-cyclopentyl-4-hydroxy-3-[(6-methyl[1,2,4]triazolo[1,5-a]pyrimidin-2-yl)methyl]-5,6-dihydro-2H-pyran-2-one]	0.023
CCCOc1cc(O)c(CCC2(C3CCCC3)CC(O)=C(Cc3nc4nc(C)cc(C)n4n3)C(=O)O2)cc1CC (centres unmarked) [A(49), 6-Cyclopentyl-3-[(5,7-dimethyl[1,2,4]triazolo[1,5-a]pyrimidin-2-yl)methyl]-6-[2-(5-ethyl-2-hydroxy-4-propoxyphenyl)ethyl]-4-hydroxy-5,6-dihydro-2H-pyran-2-one]	0.007
CCc1cc(CCC2(C3CCCC3)CC(O)=C(Cc3nc4nc(C)cc(C)n4n3)C(=O)O2)c(OCC2CCC2)cc1O (centres unmarked) [A(60), 6-{2-[2-(Cyclobutylmethoxy)5-ethyl-4-hydroxyphenyl]ethyl}-6-cyclopentyl-3-[(5,7-dimethyl[1,2,4]triazolo[1,5-a]pyrimidin-2-yl)methyl]-4-hydroxy-5,6-dihydro-2H-pyran-2-one]	0.003
CCn1cc(CCC2(C3CCCC3)CC(O)=C(Cc3nc4nc(C)cc(C)n4n3)C(=O)O2)cn1 (centres unmarked) [A(61), 6-Cyclopentyl-3[(5,7-dimethyl[1,2,4]triazolo[1,5-a]pyrimidin-2-yl)methyl]-6-[2-(1-ethyl-1H-pyrazol-4-yl)ethyl]-4-hydroxy-5,6-dihydro-2H-pyran-2-one]	0.14
Cc1cc(C)n2nc(CC3=C(O)CC(CCc4cnn(C(C)C)c4)(C4CCCC4)OC3=O)nc2n1 (centres unmarked) [A(62), 6-Cyclopentyl-3-[(5,7-dimethyl[1,2,4]triazolo[1,5-a]pyrimidin-2-yl)methyl]-4-hydroxy-6-[2-(1-isopropyl-1H-pyrazol-4-yl)ethyl]-5,6-dihydro-2H-pyran-2-one]	0.06
CS(=O)(=O)c1ccc(CCC2(C3CCCC3)CC(=O)CC(=O)O2)cc1F (centres unmarked) [A(63), 6-Cyclopentyl-6-{2-[3-fluoro-4-(methylsulfonyl)phenyl]ethyl}dihydro-2H-pyran-2,4(3H)-dione]	18.5
O=C1CC(=O)OC(CCc2ccc(S(=O)(=O)C(F)(F)F)cc2)(C2CCCC2)C1 (centres unmarked) [A(66), 6-Cyclopentyl-6-(2-{4[(trifluoromethyl)sulfonyl]phenyl}ethyl)dihydro-2H-pyran-2,4(3H)-dione]	31
CCc1cc(CCC2(C3CCCC3)CC(=O)CC(=O)O2)ccc1OCCN(C)C(=O)OC(C)(C)C (centres unmarked) [A(67), tert-Butyl 2-{4-[2-(2-cyclopentyl-4,6-dioxotetrahydro-2H-pyran-2-yl)ethyl]-2-ethylphenoxy}ethyl(methyl)carbamate]	47
CCc1cc(CCC2(C3CCCC3)CC(O)=C(Cc3nc4nc(C)cc(C)n4n3)C(=O)O2)ccc1OCCN (centres unmarked) [A(71)]	0.009
CCc1cc(CCC2(C3CCCC3)CC(O)=C(Cc3nc4nc(C)cc(C)n4n3)C(=O)O2)ccc1OCCNC (centres unmarked) [A(72), 6-Cyclopentyl-3-[(5,7-dimethyl[1,2,4]triazolo[1,5-a]pyrimidin-2-yl)methyl]-6-(2-{3-ethyl-4-[2-(methylamino)ethoxy]phenyl}ethyl)-4-hydroxy-5,6-dihydro-2H-pyran-2-one]	0.008
Cc1cc(C)n2nc(CC3=C(O)CC(CCc4cc(C)c(O)c(CC(F)(F)F)c4)(C4CCCC4)OC3=O)nc2n1 (centres unmarked) [A(76), 6-Cyclopentyl-3-[(5,7-dimethyl[1,2,4]triazolo[1,5-a]pyrimidin-2-yl)methyl]-4-hydroxy-6-{2-[4-hydroxy-3-methyl-5-(2,2,2-trifluoroethyl)phenyl]ethyl}-5,6-dihydro-2H-pyran-2-one]	0.005
Cc1cnc2nc(CC3=C(O)CC(CCc4cc(F)c(C(C)(C)C#N)cc4O)(C4CCCC4)OC3=O)nn2c1 (centres unmarked) [A(79), 2-[4-(2-{2-Cyclopentyl-4-hydroxy-5-[(6-methyl[1,2,4]triazolo[1,5-a]pyrimidin-2-yl)methyl]-6-oxo-3,6-dihydro-2H-pyran-2-yl}ethyl)-2-fluoro-5-hydroxyphenyl]-2-methylpropanenitrile]	0.012
COc1cc(CO)c(F)cc1CCC1(C2CCCC2)CC(O)=C(Cc2nc3nc(C)cc(C)n3n2)C(=O)O1 (centres unmarked) [A(80), 6-Cyclopentyl-3-[(5,7-dimethyl[1,2,4]triazolo[1,5-a]pyrimidin-2-yl)methyl]-6-{2-[5-fluoro-4-(hydroxymethyl)-2-methoxyphenyl]ethyl}-4-hydroxy-5,6-dihydro-2H-pyran-2-one]	0.022
CCS(=O)(=O)N[C@H](C)c1ccc(CCC2(C3CCCC3)CC(O)=C(Cc3nc4nc(C)cc(C)n4n3)C(=O)O2)cc1 (stereo partly drawn) [A(81), N-{(1R)-1-[4-(2-{2-cyclopentyl-5-[(5,7-dimethyl[1,2,4]triazolo[1.5-a]pyrimidin-2-yl)methyl]-4-hydroxy-6-oxo-3,6-dihydro-2H-pyran-2-yl}ethyl)phenyl]ethyl}ethanesulfonamide]	0.12
Cc1cc(C)n2nc(CC3=C(O)CC(CCc4ccc([C@@H](C)NS(=O)(=O)CC(F)(F)F)cc4)(C4CCCC4)OC3=O)nc2n1 (stereo partly drawn) [A(82), N-{(1R)-1-[4(2-{2-cyclopentyl-5-[(5,7-dimethyl[1,2,4]triazolo[1,5-a]pyrimidin-2-yl)methyl]4-hydroxy-oxo-3,6dihydro-2H-pyran-2-yl}ethyl)phenyl]ethyl}-2,2,2-trifluoroethanesulfonamide]	0.065
Cc1cc(C)n2nc(CC3=C(O)CC(CCc4ccc([C@@H](C)NS(C)(=O)=O)cc4)(C4CCCC4)OC3=O)nc2n1 (some centres unmarked) [A(83)]	0.038

Other lines, results leading:

IC50 [µM]	Compound
12	CCc1cc(CCC2(C3CCCC3)CC(=O)CC(=O)O2)ccc1OCCNC(=O)OC(C)(C)C (centres unmarked) [A(68), tert-Butyl 2-{4-[2-(2-cyclopentyl-4,6-dioxotetrahydro-2H-pyran-2-yl)ethyl]-2-ethylphenoxy}ethylcarbamate]
0.25	Cc1cc(C)n2nc(CC3=C(O)CC(CCc4ccc(S(=O)(=O)C(F)(F)F)cc4)(C4CCCC4)OC3=O)nc2n1 (centres unmarked) [A(65)]
0.015	CCc1cc(CCC2(C3CCCC3)CC(O)=C(Cc3nc4nc(C)cc(C)n4n3)C(=O)O2)ccc1OCCN(C)C(=O)OC(C)(C)C (centres unmarked) [A(69), tert-Butyl 2-[4-(2-{2-cyclopentyl-5-[(5,7-dimethyl[1,2,4]triazolo[1,5-a]pyrimidin-2-yl)methyl]-4-hydroxy-6-oxo-3,6-dihydro-2H-pyran-2-yl}ethyl)2-ethylphenoxy]ethyl(methyl)carbamate]
0.014	CCc1cc(CCC2(C3CCCC3)CC(O)=C(Cc3nc4nc(C)cc(C)n4n3)C(=O)O2)ccc1OCCNC(=O)OC(C)(C)C (centres unmarked) [A(70), tert-Butyl 2-[4-(2-{2-cyclopentyl-5-[(5,7-dimethyl[1,2,4]triazolo[1,5-a]pyrimidin-2-yl)methyl]-4-hydroxy-6-oxo-3,6-dihydro-2H-pyran-2-yl}ethyl)-2-ethylphenoxy]ethylcarbamate]
0.012	Cc1cnc2nc(CC3=C(O)CC(CCc4ccc(C(C)(C)C#N)c(C)c4)(C4CCCC4)OC3=O)nn2c1 (centres unmarked) [A(78), 2-[4-(2-{2-Cyclopentyl-4-hydroxy-5-[(6-methyl[1,2,4]triazolo[1,5-a]pyrimidin-2-yl)methyl]-6-oxo-3,6-dihydro-2H-pyran-2-yl}ethyl)-2-methylphenyl]-2-methylpropanenitrile]
0.008	CCOc1cnc(CC)cc1CCC1(C2CCCC2)CC(O)=C(Cc2nc3ncc(C)cn3n2)C(=O)O1 (centres unmarked) [A(43), 6-Cyclopentyl-6-[2-(5-ethoxy-2-ethylpyridin-4-yl)ethyl]-4-hydroxy-3-[(6-methyl[1,2,4]triazolo[1,5-a]pyrimidin-2-yl)methyl]-5,6-dihydro-2H-pyran-2-one]
0.006	CCCOc1cnc(CC)cc1CCC1(C2CCCC2)CC(O)=C(Cc2nc3ncc(C)cn3n2)C(=O)O1 (centres unmarked) [A(46), 6-Cyclopentyl-6-[2-(2-ethyl-5-propoxypyridin-4-yl)ethyl]-4-hydroxy-3-[(6-methyl[1,2,4]triazolo[1,5-a]pyrimidin-2-yl)methyl]-5,6-dihydro-2H-pyran-2-one]
0.005	CCCOc1cc(O)c(CC(F)(F)F)cc1CCC1(C2CCCC2)CC(O)=C(Cc2nc3nc(C)cc(C)n3n2)C(=O)O1 (centres unmarked) [A(77), 6-Cyclopentyl-3-[(5,7-dimethyl[1,2,4]triazolo[1,5-a]pyrimidin-2-yl)methyl]-4-hydroxy-6-{2-[4-hydroxy-2-propoxy-5-(2,2,2-trifluoroethyl)phenyl]ethyl}-5,6-dihydro-2H-pyran-2-one]
0.004	CCCOc1cnc(CC)cc1CCC1(C2CCCC2)CC(O)=C(Cc2nc3nc(C)cc(C)n3n2)C(=O)O1 (centres unmarked) [A(42), 6-Cyclopentyl-3-[(5,7-dimethyl[1,2,4]triazolo[1,5-a]pyrimidin-2-yl)methyl]-6-[2-(2-ethyl-5propoxypyridin-4-yl)ethyl]-4-hydroxy-5,6-dihydro-2H-pyran-2-one]
0.004	CCCOc1cc(O)c(CCC2(C3CCCC3)CC(O)=C(Cc3nc4ncc(C)cn4n3)C(=O)O2)cc1CC (centres unmarked) [A(50), 6-Cyclopentyl-6-[2-(5-ethyl-2-hydroxy-4-propoxyphenyl)ethyl]-4-hydroxy-3-[(6-methyl[1,2,4]triazolo[1,5-a]pyrimidin-2-yl)methyl]-5,6-dihydro-2H-pyran-2-one]
0.003	CCc1cc(CCC2(C3CCCC3)CC(O)=C(Cc3nc4nc(C)cc(C)n4n3)C(=O)O2)c(OCC(C)C)cc1O (centres unmarked) [A(59)]

same assay, conditions: read-out: % inh @ 50 uM

Compound	inhibition at 50 µM [%]
CCc1cc(CCC2(C3CCCC3)CC(=O)CC(=O)O2)c(OC)cc1OCCN(C)C(=O)OC(C)(C)C (centres unmarked) [A(73), tert-Butyl 2-{4-[2-(2-cyclopentyl-4,6-dioxotetrahydro-2H-pyran-2-yl)ethyl]-2-ethyl-5-methoxyphenoxy}ethyl(methyl)carbamate]	19
